The values that follow come from article PMC7827406, “Structure–Activity Relationship (SAR) Study of Spautin-1 to Entail the Discovery of Novel NEK4 Inhibitors” (International Journal of Molecular Sciences, 2021).

Read-outs that look alike come from different tables or passages of the source.

What all share (test): biochemical
Common to all, as to set-up: Eurofins KinaseProfiler full panel at Km ATP, residual kinase activity (%) relative to DMSO

For assay [1], the target named is T1, Flt3(h) (Homo sapiens, UniProt P36888).
T1 sequence (P36888 1-993): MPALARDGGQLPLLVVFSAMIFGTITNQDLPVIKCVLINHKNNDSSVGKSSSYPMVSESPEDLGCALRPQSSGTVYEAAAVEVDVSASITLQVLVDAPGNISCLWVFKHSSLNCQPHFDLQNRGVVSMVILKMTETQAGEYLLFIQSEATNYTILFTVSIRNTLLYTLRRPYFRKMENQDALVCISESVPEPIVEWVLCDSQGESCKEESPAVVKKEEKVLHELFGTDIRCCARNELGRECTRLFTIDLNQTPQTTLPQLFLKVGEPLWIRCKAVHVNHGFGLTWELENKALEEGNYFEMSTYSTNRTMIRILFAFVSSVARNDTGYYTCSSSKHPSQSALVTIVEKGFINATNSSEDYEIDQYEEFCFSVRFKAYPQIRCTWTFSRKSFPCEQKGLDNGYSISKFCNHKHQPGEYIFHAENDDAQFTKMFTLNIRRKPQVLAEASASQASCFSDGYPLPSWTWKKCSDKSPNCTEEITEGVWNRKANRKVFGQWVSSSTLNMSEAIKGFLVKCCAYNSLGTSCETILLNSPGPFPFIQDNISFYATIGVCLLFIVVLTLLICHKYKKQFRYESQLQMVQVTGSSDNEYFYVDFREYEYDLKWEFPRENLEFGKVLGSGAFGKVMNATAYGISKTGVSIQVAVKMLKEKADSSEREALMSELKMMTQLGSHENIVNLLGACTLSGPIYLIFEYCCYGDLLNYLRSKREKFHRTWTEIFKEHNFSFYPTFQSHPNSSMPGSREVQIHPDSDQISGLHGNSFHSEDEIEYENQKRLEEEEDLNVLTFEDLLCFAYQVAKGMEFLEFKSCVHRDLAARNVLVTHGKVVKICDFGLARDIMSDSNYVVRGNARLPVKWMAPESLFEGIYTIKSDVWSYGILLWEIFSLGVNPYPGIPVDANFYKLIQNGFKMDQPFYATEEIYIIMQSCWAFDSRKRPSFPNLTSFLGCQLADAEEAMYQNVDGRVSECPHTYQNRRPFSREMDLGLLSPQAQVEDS
Summed up:
(§1)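 Two 10 µM single-concentration screens were run: a competition-binding screen, in which DNA-tagged kinase bound to immobilized ligands was quantified by qPCR, and a radiometric activity panel at Km ATP. Each is expressed as residual kinase activity (%).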

In assay [2] the target is T2, JNK2α2(h) (Homo sapiens, UniProt P45984).
T2 construct: gene MAPK9; isoform alpha2
T2 sequence (P45984 whole entry, canonical isoform): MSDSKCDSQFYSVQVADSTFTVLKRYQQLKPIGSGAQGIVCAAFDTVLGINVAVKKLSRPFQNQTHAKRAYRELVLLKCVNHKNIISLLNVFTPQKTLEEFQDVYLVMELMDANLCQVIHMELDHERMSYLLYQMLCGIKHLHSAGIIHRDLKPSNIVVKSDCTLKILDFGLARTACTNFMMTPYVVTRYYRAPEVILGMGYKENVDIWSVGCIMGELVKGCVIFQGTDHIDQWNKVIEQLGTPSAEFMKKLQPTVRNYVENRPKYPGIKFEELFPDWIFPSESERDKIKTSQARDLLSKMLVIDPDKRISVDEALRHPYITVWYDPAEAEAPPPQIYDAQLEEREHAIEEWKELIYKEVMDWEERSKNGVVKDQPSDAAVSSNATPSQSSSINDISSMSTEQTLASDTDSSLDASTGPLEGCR
Summed up: as §1

In assay [3] the target is T3, MYO3B(h) (Homo sapiens, UniProt Q8WXR4).
T3 sequence (Q8WXR4 1-1341): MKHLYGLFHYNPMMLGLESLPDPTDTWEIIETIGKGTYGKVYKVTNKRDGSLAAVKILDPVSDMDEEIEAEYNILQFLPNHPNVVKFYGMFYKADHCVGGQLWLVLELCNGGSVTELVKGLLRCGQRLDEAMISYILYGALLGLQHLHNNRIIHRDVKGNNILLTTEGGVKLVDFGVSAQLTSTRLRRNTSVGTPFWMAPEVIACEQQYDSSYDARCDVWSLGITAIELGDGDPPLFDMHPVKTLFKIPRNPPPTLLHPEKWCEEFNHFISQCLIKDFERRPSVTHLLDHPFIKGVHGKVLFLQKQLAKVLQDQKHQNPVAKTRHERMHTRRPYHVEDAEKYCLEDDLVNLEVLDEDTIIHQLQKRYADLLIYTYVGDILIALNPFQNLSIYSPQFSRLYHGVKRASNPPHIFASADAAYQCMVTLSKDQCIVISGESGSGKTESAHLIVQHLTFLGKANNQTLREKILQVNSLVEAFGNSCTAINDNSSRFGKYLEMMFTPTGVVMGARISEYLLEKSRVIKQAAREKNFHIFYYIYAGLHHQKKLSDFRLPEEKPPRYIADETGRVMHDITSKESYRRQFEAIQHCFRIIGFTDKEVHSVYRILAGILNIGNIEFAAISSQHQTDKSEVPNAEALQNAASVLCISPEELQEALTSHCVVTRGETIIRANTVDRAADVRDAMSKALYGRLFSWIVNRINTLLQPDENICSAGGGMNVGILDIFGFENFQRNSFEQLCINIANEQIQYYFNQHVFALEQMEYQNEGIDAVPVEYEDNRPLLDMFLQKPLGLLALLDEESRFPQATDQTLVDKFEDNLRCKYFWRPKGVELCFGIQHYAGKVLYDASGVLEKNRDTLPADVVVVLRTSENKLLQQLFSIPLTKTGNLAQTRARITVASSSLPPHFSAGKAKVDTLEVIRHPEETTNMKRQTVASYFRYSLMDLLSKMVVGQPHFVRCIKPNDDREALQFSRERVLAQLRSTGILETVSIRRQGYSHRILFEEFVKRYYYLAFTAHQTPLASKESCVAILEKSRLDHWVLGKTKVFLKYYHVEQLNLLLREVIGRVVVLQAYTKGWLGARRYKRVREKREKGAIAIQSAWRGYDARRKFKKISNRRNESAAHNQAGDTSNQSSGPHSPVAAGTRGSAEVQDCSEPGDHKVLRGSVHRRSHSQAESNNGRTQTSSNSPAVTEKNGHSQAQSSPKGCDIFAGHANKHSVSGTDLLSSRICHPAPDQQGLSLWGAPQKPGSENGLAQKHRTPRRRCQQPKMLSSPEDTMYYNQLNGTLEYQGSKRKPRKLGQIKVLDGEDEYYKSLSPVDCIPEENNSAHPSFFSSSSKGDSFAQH
An outline of the steps:
as §1

Assay [4] has as its target T4, PKCθ(h) (Homo sapiens, UniProt Q04759).
T4 construct: gene PRKCQ
Summed up:
as §1

[5] abbreviates: read-out: Residual activity (%) Spautin-1 5aa.
Where [6] appears, read: read-out: Residual activity (%) 5as.
Setting [7] is: read-out: Residual activity (%) 5at.
The mark [8] stands for this setting: read-out: Residual activity (%) 5ay.

T4 sequence (Q04759 whole entry): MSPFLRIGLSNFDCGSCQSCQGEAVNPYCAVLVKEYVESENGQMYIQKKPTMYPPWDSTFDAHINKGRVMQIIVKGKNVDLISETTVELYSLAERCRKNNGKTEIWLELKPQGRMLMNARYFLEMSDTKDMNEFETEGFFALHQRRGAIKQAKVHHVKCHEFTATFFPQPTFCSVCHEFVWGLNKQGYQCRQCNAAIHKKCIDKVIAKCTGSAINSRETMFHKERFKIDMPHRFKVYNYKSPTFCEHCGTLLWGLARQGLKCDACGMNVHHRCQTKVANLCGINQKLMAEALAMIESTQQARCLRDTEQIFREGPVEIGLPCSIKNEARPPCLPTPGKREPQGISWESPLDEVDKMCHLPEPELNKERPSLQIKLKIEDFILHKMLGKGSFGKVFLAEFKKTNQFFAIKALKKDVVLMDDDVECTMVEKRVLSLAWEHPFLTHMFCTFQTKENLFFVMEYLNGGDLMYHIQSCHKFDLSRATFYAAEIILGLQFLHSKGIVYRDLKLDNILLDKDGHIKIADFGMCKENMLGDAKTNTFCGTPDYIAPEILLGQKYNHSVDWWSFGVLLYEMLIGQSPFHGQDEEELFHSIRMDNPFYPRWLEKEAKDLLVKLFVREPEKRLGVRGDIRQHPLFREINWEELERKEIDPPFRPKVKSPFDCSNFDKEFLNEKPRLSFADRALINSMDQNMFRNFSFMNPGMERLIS

`Fc1ccc(CNc2ncnc3ccc(F)cc23)cc1` [5aa, 6-Fluoro-N-(4-fluorobenzyl)-4-Quinazolinamine]: the remaining activity at 10 µM in assay [1] (setting [5]) turned out to be 71%; in assay [2] (setting [5]), 89%; in assay [3] (setting [5]), 89%; in assay [4] (setting [5]), 80%.
With `Fc1ccc(CCNc2ncnc3ccc(F)cc23)cc1` [5as, 6-Fluoro-N-[2-(4-Fluorophenyl)Ethyl]-4-Quinazolinamine], the remaining activity at 10 µM in assay [1] (setting [6]) came out at 73%; in assay [2] (setting [6]), 78%; in assay [3] (setting [6]), 84%; in assay [4] (setting [6]), 100%.
For the compound `Fc1ccc2ncnc(NCCc3ccc(Cl)cc3)c2c1` [5at, N-[2-(4-Chlorophenyl)Ethyl]-6-Fluoro-4-Quinazolinamine], the remaining activity at 10 µM in assay [1] (setting [7]) was 62%; in assay [2] (setting [7]), 88%; in assay [3] (setting [7]) it was 87%; in assay [4] (setting [7]), 90%.
Take `COc1ccc2ncnc(Nc3cccc(F)c3)c2c1` [5ay, N-(3-Fluorophenyl)-6-Methoxy-4-Quinazolinamine]: the remaining activity at 10 µM in assay [1] (setting [8]) is 70%; in assay [2] (setting [8]), 82%; in assay [3] (setting [8]) it was 88%; in assay [4] (setting [8]), 117%.
